In US20120040951A1, “HETEROARYL COMPOUNDS USEFUL AS RAF KINASE INHIBITORS” (priority 2008, published 2012):

Tested on: phospho-ERK in melanoma derived WM-266-4 cells
Assay: Mechanistic cellular assay for Raf kinase activity (phospho-ERK, Bio-Plex)
Assay type: cell-based
Details: Homo sapiens, treated 1-2 hr at 37° C., serum free medium, read-out: pERK EC50
From the text: (2) Mechanistic Cellular Assay for Raf Kinase Activity
The following method was utilized for quantifying the amount of phospho-ERK in melanoma derived WM-266-4 cells (one allele each of wild type BRaf and mutant BRaf (V600D) as an indicator of Raf kinase activity in cells treated with various kinase inhibitors.
(1) Detached adhered WM-266-4 cells from flask using 0.25% Trypsin. Resuspended cells in growth media (90% RPMI 1640, 10% FBS) and determine cell density.
(2) Seeded cells @ 10,000 cells/well in 96-well (flat bottom) tissue culture plates (36,000 cells/cm^2). Added growth media to a final volume of 200 uL/well and incubated overnight at 37° C.
(1) Prepared compound dilutions (1000× in DMSO) as follows. Starting with a stock of 5 mM compound in DMSO, diluted serially 3-fold in DMSO for a total of eight concentrations (5 mM, 1.67 mM, 0.556 mM, 0.185 mM, 0.062 mM, 0.021 mM, 0.007 mM, 0.002 mM).
(2) Prepared compound-containing media by adding 1 mL treatment media (100% RPMI 1640 without FBS) to 1 μL of compound dilution (from step 3).
(3) Removed plates (from step 2) from incubator. Aspirated media and replace with 150 μL compound-containing media. Incubate for 1-2 hr at 37° C.
(4) Removed plates (from step 5) from incubator and treated each as follows: aspirated compound-containing media and replaced with 300 μL ice-cold 1×PBS, aspirated PBS and replaced with 45 μL lysis buffer (Biorad Bio-Plex lysis buffer containing 0.4% v/v lysis buff. Factor 1, 0.2% v/v lysis buff. Factor 2, and PMSF to 2 mM final concentration), and then placed plate on ice until all plates were treated.
(5) After all plates were processed (step 6), placed plates on an orbital shaker and shook at room temperature for at least 15 min.
(6) Finally, removed plates from shaker, and transfered 40 μL/well of lysate from each to new corresponding 96-well V-bottom plates. At this point, samples may be frozen and stored @−80 C.°.
(1) Thaw (if necessary) plates (from step 8) and added 40 μL of Phospho-Protein Assay Buffer to each 40 μL lysate for a 1:1 dilution.
(2) Prepared phospho-ERK1,2 Bioplex beads by diluting 1:50 with Bioplex Wash Buffer (mixing 49 μL Wash Buffer with 1 μL of phospho-ERK1,2 Bioplex beads for each sample to be analyzed). Protected from light by wrapping tube in aluminum foil and kept at room temperature.
(3) Prepared Filter Plate by adding 100 μL/well Bioplex Wash Buffer and removed by vacuum filtration.
(4) Add 50 μL of bead solution (from step 10) to each well of a prepared Filter Plate (from step 11) and vacuum filter. Wash/filter 2× with 100 μL/well Wash Buffer.
(5) Added 50 μL of each lysate to appropriate well of the Filter Plate (from step 12). For this and all subsequent plate incubation steps, placed plate on an inverted plate cover (reduces background), and wrapped in aluminum foil (to protect from light). Shook overnight at room temperature. Included positive (control lysate) and negative (lysis buffer) controls.
(1) Prepared detection antibody (phospho-ERK1,2 Ab) by diluting 1:25 with Detection Antibody Dilution Buffer Buffer (mixing 24 μL Detection Antibody Dilution Buffer with 1 μL of phospho-ERK1,2 Ab for each sample to be analyzed).
(2) Removed plate (from step 13) from shaker and vacuum filter. Washed/filter plate 3× with 100 μL/well Wash Buffer. Added 25 μL of diluted antibody to each well. Incubated on shaker at RT for 30-45 min.
(3) Prepared streptavidin-PE by diluting 1:100 with Wash Buffer (mixing 49.5 μL Wash Buffer with 0.5 μL of 100× streptavidin-PE for each sample to be analyzed). Protected from light.
(4) Removed plate (from step 15) from shaker and vacuum filter. Washed/filter plate 3× with 100 μL/well Wash Buffer. Add 50 μL of diluted streptavidin-PE solution (from step 16) to each sample well. Incubated on shaker for 10-20 min.
(5) Removed plate from shaker and vacuum filter. Wash/filter plate 3× with 100 μL/well Bead Resuspension Buffer. After last wash resuspended beads in 125 μL Bead Resuspension Buffer. […]

SMILES	EC50 [nM]
CC(NC(=O)c1cc2c(cn1)ncn2C)c1cnc(Nc2ccc(C3COC3)cc2)cn1 (centres unmarked) [Example 281]	1000 to 10000
C[C@H](NC(=O)c1cc2c(cn1)ncn2C)c1cnc(Nc2ccc(Cl)c(C(F)(F)F)c2)cn1 (single isomer, unassigned) [Example 237]	1000 to 10000
C[C@@H](NC(=O)c1cnc2sccn12)c1ncc(C(=O)Nc2cc(C(F)(F)F)c(Cl)cn2)s1 [Example 165]	100 to 1000
Cc1nc(-c2cnccn2)sc1C(=O)N[C@H](C)c1ncc(C(=O)Nc2cc(C(F)(F)F)c(Cl)cn2)s1 [Example 100]	1000 to 10000
Cc1c(C(=O)N[C@H](C)c2ncc(C(=O)Nc3cc(C(F)(F)F)c(Cl)cn3)s2)cnn1-c1ccccc1 [Example 114]	1000 to 10000
CC(NC(=O)c1cnn2cc(-c3cccnc3F)ccc12)c1nc(C(=O)Nc2cc(C(F)(F)F)c(Cl)cn2)cs1 (centres unmarked) [Example 324]	100 to 1000
CC(NC(=O)c1cccc(N2CCOCC2)n1)c1ncc(C(=O)Nc2cc(C(F)(F)F)c(Cl)cn2)s1 (centres unmarked) [Example 88]	100 to 1000
COc1cn2ncnc(C(=O)NC(C)c3cnc(Nc4ccc(C(F)(F)F)cc4)s3)c2c1C (centres unmarked) [Example 337]	100 to 1000
CC(NC(=O)c1cc2c(cn1)ncn2C)c1cnc(Nc2ccc(C3(C)CC3)cc2)s1 (centres unmarked) [Example 277]	100 to 1000
C[C@@H](NC(=O)c1cc2c(cn1)ncn2[C@@H]1CCN(C(=O)OC(C)(C)C)C1)c1cnc(Nc2ccc(C(F)(F)F)cc2)s1 [Example 22]	100 to 1000
CCCn1ncc(C(=O)N[C@H](C)c2ncc(C(=O)Nc3cc(C(F)(F)F)c(Cl)cn3)s2)c1C [Example 122]	100 to 1000
CC(NC(=O)c1cc2c(cn1)ncn2CCNC(=O)OC(C)(C)C)c1cnc(Nc2ccc(C(F)(F)F)cc2)s1 (centres unmarked) [Example 21]	100 to 1000
CC(NC(=O)c1cc2c(cn1)ncn2C1CCCCC1)c1cnc(Nc2ccc(C(F)(F)F)cc2)s1 (centres unmarked) [Example 18]	100 to 1000
CC(NC(=O)c1cnn2cc(Br)ccc12)c1ncc(C(=O)Nc2cc(C(F)(F)F)c(Cl)cn2)s1 (centres unmarked) [Example 319]	100 to 1000
C[C@@H](NC(=O)c1cnc2ncccn12)c1ncc(C(=O)Nc2cc(C(F)(F)F)c(Cl)cn2)s1 [Example 137]	100 to 1000
CC(NC(=O)c1cc2c(cn1)ncn2C)c1cnc(Nc2cccc(Cl)c2)s1 (centres unmarked) [Example 248]	100 to 1000
CC(NC(=O)c1cc2c(cn1)ncn2C)c1cnc(Nc2ccc(Cl)cc2)s1 (centres unmarked) [Example 249]	100 to 1000
C[C@@H](NC(=O)c1cnn(-c2cccnc2)c1)c1ncc(C(=O)Nc2cc(C(F)(F)F)c(Cl)cn2)s1 [Example 116]	100 to 1000
CC(NC(=O)c1cc2c(cn1)ncn2C)c1cnc(Nc2ccc(Cl)cc2)cn1 (centres unmarked) [Example 255]	100 to 1000
CCN(CC)c1cnc2cnc(C(=O)NC(C)c3ncc(Nc4ccc(C(F)(F)F)cc4)s3)cn12 (centres unmarked) [Example 304]	100 to 1000
C[C@@H](NC(=O)c1cc2c(cn1)ncn2C1CN(CC(=O)O)C1)c1cnc(Nc2ccc(C(F)(F)F)cc2)s1 [Example 349]	1000 to 10000
CC(NC(=O)c1cnc2n1CCNC2)c1cnc(Nc2ccc(C(F)(F)F)cc2)s1 (centres unmarked) [Example 314]	100 to 1000
CC(NC(=O)c1cncc(Br)c1)c1ncc(C(=O)Nc2cc(C(F)(F)F)c(Cl)cn2)s1 (centres unmarked) [Example 50]	1000 to 10000
CCc1nc2cnc(C(=O)NC(C)c3ncc(Nc4ccc(C(F)(F)F)cc4)s3)cn2c1N (centres unmarked) [Example 307]	1000 to 10000
C[C@@H](NC(=O)c1cnn(-c2ccncc2)c1)c1ncc(C(=O)Nc2cc(C(F)(F)F)c(Cl)cn2)s1 [Example 120]	100 to 1000
Cc1nc2cnc(C(=O)NC(C)c3ncc(Nc4ccc(C(F)(F)F)cc4)s3)cn2c1Cl (centres unmarked) [Example 308]	1000 to 10000
C[C@@H](NC(=O)c1cc2c(cn1)ncn2C1CN(S(=O)(=O)CC(F)(F)F)C1)c1cnc(Nc2ccc(C(F)(F)F)cc2)cn1 [Example 344]	100 to 1000
C[C@@H](NC(=O)c1cnn(-c2ccccc2)c1)c1ncc(C(=O)Nc2cc(C(F)(F)F)c(Cl)cn2)s1 [Example 117]	1000 to 10000
CC(NC(=O)c1cc2cn[nH]c2cn1)c1cnc(Nc2ccc(C(F)(F)F)cc2)s1 (centres unmarked) [Example 202]	1000 to 10000
CC(NC(=O)c1cc2c(cn1)ncn2C)c1cnc(Nc2cc(C(F)(F)F)ccn2)s1 (centres unmarked) [Example 251]	1000 to 10000

The next lines start with the values.

EC50 [nM]	SMILES
100 to 1000	CC(NC(=O)c1cc2c(cn1)nc(N)n2C)c1cnc(Nc2ccc(C(F)(F)F)nc2)s1 (centres unmarked) [Example 293]
100 to 1000	CC(NC(=O)c1cc2cn(C)nc2cn1)c1cnc(Nc2ccc(C(F)(F)F)cc2)cn1 (centres unmarked) [Example 206]
≤ 100	CC(NC(=O)c1cnn2cc(-c3ccncc3)ccc12)c1ncc(C(=O)Nc2cc(C(F)(F)F)c(Cl)cn2)s1 (centres unmarked) [Example 321]
≤ 100	CC(NC(=O)c1cc2c(cn1)ncn2C)c1cnc(Nc2cc(C(C)(C)C(F)(F)F)ccc2F)s1 (centres unmarked) [Example 274]
100 to 1000	CCNc1cnc2cnc(C(=O)NC(C)c3ncc(Nc4ccc(C(F)(F)F)cc4)s3)cn12 (centres unmarked) [Example 303]
100 to 1000	CC(C)Cn1cnc2cnc(C(=O)NC(C)c3cnc(Nc4ccc(C(F)(F)F)cc4)cn3)cc21 (centres unmarked) [Example 79]
100 to 1000	CC(NC(=O)c1cnn2cc(-c3cc(F)nc(F)c3)ccc12)c1nc(C(=O)Nc2cc(C(F)(F)F)c(Cl)cn2)cs1 (centres unmarked) [Example 325]
≤ 100	CC(NC(=O)c1cnn2cc(-c3cncc(F)c3)ccc12)c1ncc(C(=O)Nc2cc(C(F)(F)F)c(Cl)cn2)s1 (centres unmarked) [Example 329]
≤ 100	CC(NC(=O)c1cnn2cc(-c3cnc(N)nc3)ccc12)c1ncc(C(=O)Nc2cc(C(F)(F)F)c(Cl)cn2)s1 (centres unmarked) [Example 327]
≤ 100	Cc1c(C(=O)N[C@H](C)c2ncc(C(=O)Nc3cc(C(F)(F)F)c(Cl)cn3)s2)cnn1C [Example 115]
≤ 100	CC(NC(=O)c1cc2scnc2cn1)c1cnc(Nc2ccc(C(F)(F)F)cc2)s1 (centres unmarked) [Example 208]
≤ 100	CC(C)Cn1cnc2cnc(C(=O)NC(C)c3cnc(Nc4ccc(C(F)(F)F)cc4)s3)cc21 (centres unmarked) [Example 15]
≤ 100	CCn1c(C(=O)N[C@H](C)c2ncc(C(=O)Nc3cc(C(F)(F)F)c(Cl)cn3)s2)cnc1N [Example 149]
≤ 100	C[C@@H](NC(=O)c1cnc(N)n1C)c1ncc(C(=O)Nc2cc(C(F)(F)F)c(Cl)cn2)s1 [Example 147]
≤ 100	Cc1ncc(C(=O)N[C@H](C)c2ncc(C(=O)Nc3cc(C(F)(F)F)c(Cl)cn3)s2)n1-c1cccnc1 [Example 162]
≤ 100	C[C@@H](NC(=O)c1ccc2ncsc2c1)c1ncc(C(=O)Nc2cc(C(F)(F)F)c(Cl)cn2)s1 [Example 61]
≤ 100	CC(NC(=O)c1cc2c(cn1)ncn2C1CCOCC1)c1cnc(Nc2ccc(C(F)(F)F)cc2)s1 (centres unmarked) [Example 9]
≤ 100	CC(C)S(=O)(=O)N1CC(n2cnc3cnc(C(=O)N[C@H](C)c4cnc(Nc5ccc(C(F)(F)F)cc5)cn4)cc32)C1 [Example 343]
≤ 100	C[C@@H](NC(=O)c1cnc2n1CCCCN2)c1ncc(C(=O)Nc2cc(C(F)(F)F)c(Cl)cn2)s1 [Example 171]
≤ 100	C[C@@H](NC(=O)c1cc2cn(C)nc2cn1)c1cnc(Nc2ccc(C(F)(F)F)cc2)s1 [Example 205]
≤ 100	COCCn1c(C(=O)N[C@H](C)c2ncc(C(=O)Nc3cc(C(F)(F)F)c(Cl)cn3)s2)cnc1C [Example 152]
≤ 100	C[C@@H](NC(=O)c1ccc2nccnc2c1)c1ncc(C(=O)Nc2cc(C(F)(F)F)c(Cl)cn2)s1 [Example 63]
≤ 100	C[C@@H](NC(=O)c1cnc2ccccn12)c1ncc(C(=O)Nc2cc(C(F)(F)F)c(Cl)cn2)s1 [Example 135]
